From US12643912B2, “Macrocyclic compounds, a process for their preparation and pharmaceutical compositions containing them” (LES LABORATOIRES SERVIER, priority 2020, dated 2026)
Read-outs that look alike come from different tables or passages of the source.

Legend:
[1] = test system: Nrf2 (Keap1-NRF2 nuclear translocation); experiment: U2OS translocation assay (PathHunter U2OS Keap1-NRF2 Nuclear Translocation Cell Line); assay type: cell-based
Summary of the method: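 Enzyme-fragment complementation read-out: luminescence after 60 min of detection reagent at room temperature, following a 3 h, 37° C compound exposure of engineered U2OS Keap1-NRF2 translocation cells (1% FBS medium). Signal scaled from 1% DMSO basal to 10 μM andrographolide maximum.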

Keap1 (A321-C624) (h) = target: T1, Keap1 (A321-C624) (h) (Homo sapiens, UniProt Q14145); experiment: Surface Plasmon Resonance binding assay to Kelch domain of KEAP1; conditions: Biacore T200, 25° C., immobilized His-Thromb-KEAP1(A321-C624), single cycle kinetics, KD=kd/ka from 1:1 fit; read-out: Keap1 (A321-C624) (h) direct/SPR (KD)
T1 construct: His-Thromb-KEAP1(A321-C624) acquired from Novalix (batch PU-P01) was immobilized covalently by amine coupling; His tag (N); thrombin cleavage site (Thromb) (N); purchased Novalix batch PU-P01
Summary of the method: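 His-Thromb-KEAP1(A321-C624) amine-coupled on CM5 chip to 1250 RU; amine blank reference. Run at 25° C in HEPES pH 7.4, 150 mM NaCl, 3 mM EDTA, 1 mM TCEP, 0.05% P20, 5% DMSO; 180 s association, 720 s dissociation, 50 μL/min. KD = kd/ka from 1:1 kinetic fit, double-referenced, DMSO solvent-corrected.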

[2] = Homo sapiens, U2OS, 3 h, read-out: CELLULAR U2OS EC50 (nM), U2OS Keap1-NRF2 nuclear translocation cells, 3 h incubation, luminescence, normalized between 1% DMSO and 10 μM andrographolide
[3] = read-out: CELLULAR U2OS EC50, U2OS Keap1-NRF2 nuclear translocation cells, 3 h incubation, luminescence, normalized between 1% DMSO and 10 μM andrographolide

T1 sequence (Q14145 321-624): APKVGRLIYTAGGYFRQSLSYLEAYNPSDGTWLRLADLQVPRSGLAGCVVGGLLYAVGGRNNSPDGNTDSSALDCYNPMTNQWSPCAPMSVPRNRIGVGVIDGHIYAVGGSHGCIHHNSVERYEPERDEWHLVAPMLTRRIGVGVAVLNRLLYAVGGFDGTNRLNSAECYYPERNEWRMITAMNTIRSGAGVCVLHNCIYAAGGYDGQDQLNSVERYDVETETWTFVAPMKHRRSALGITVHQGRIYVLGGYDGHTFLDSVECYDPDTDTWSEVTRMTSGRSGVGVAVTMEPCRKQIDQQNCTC

Kd (Keap1 (A321-C624) (h)) [nM] | Compound | EC50 [1, 2] [nM] | EC50 [1, 3] [nM]
3 | Cc1ccc2cc1CN1Cc3cc(ccc3OS1(=O)=O)OCc1ccccc1CCn1nnc3c(C)c(ccc31)C2CC(=O)O (single isomer, unassigned) [Example 62a, [4,36-Dimethyl-32,32-dioxo-26,31-dioxa-32λ^6-thia-1,14,15,16-tetraazaheptacyclo[25.5.3.1^3,70.1^9,130.0^12,160.0^19,240.0^30,34]heptatriaconta-3(37),4,6,9(36),10,12,14,19,21,23,27,29,34-tridecaen-8-yl]acetic acid] | 177 | –
0.594 | Cc1ccc2cc1CN1Cc3cc(ccc3OS1(=O)=O)OC[C@H](C)CCn1nnc3c(C)c(ccc31)C2CC(=O)O (single isomer, unassigned) [Example 45a] | – | 11.8
4.03 | COc1cc2cc3c1OS(=O)(=O)N(Cc1cc(ccc1C)C(CC(=O)O)c1ccc4c(nnn4CCCCO2)c1C)C3 (single isomer, unassigned) [Example 16a, [24-Methoxy-4,31-dimethyl-27,27-dioxo-21,26-dioxa-27λ^6-thia-1,14,15,16-tetraazahexacyclo[20.5.3.1^3,70.1^9,130.0^12,160.0^25,29]dotriaconta-3(32),4,6,9(31),10,12,14,22,24,29-decaen-8-yl]acetic acid] | – | 871
23.4 | COc1ccc2cc1[C@@H](C)N1Cc3cc(ccc3OS1(=O)=O)OCCCCn1nnc3c(C)c(ccc31)[C@@H]2CC(=O)O [Example 28a, [(2R,8R)-4-Methoxy-2,31-dimethyl-27,27-dioxo-21,26-dioxa-27λ^6-thia-1,14,15,16-tetraazahexacyclo[20.5.3.1^3,70.1^9,130.0^12,160.0^25,29]dotriaconta-3(32),4,6,9(31),10,12,14,22,24,29-decaen-8-yl]acetic acid] | 611 | –
58.9 | Cc1ccc2cc1CN1Cc3cc(ccc3OS1(=O)=O)OCc1ccccc1OCCCn1nnc3c(C)c(ccc31)C2CC(=O)O (single isomer, unassigned) [Example 57a, [4,38-Dimethyl-34,34-dioxo-20,28,33-trioxa-34λ^6-thia-1,14,15,16-tetraazaheptacyclo[27.5.3.1^3,70.1^9,130.0^12,160.0^21,260.0^32,36]nonatriaconta-3(39),4,6,9(38),10,12,14,21,23,25,29,31,36-tridecaen-8-yl]acetic acid] | – | 496
14.2 | Cc1c2ccc3c1nnn3CCCCOc1ccc3c(c1)CN(Cc1cc(ccc1F)C2CC(=O)O)S(=O)(=O)O3 (centres unmarked) [Example 14, [4-Fluoro-31-methyl-27,27-dioxo-21,26-dioxa-27λ^6-thia-1,14,15,16-tetraazahexacyclo[20.5.3.1^3,70.1^9,130.0^12,160.0^25,29]dotriaconta-3(32),4,6,9(31),10,12,14,22,24,29-decaen-8-yl]acetic acid] | 582 | –
62.2 | COc1cc2cc(c1)C(CC(=O)O)c1ccc3c(nnn3CCCCOc3ccc4c(c3)CN(C2)S(=O)(=O)O4)c1C (single isomer, unassigned) [Example 8a, [5-Methoxy-31-methyl-27,27-dioxo-21,26-dioxa-27λ^6-thia-1,14,15,16-tetraazahexacyclo[20.5.3.1^3,70.1^9,130.0^12,160.0^25,29]dotriaconta-3(32),4,6,9(31),10,12,14,22,24,29-decaen-8-yl]acetic acid] | 986 | –
90.5 | COc1ccc2cc1CN1Cc3cc(ccc3OS1(=O)=O)OCc1ccccc1SCCCCn1nnc3c(C)c(ccc31)C2CC(=O)O (single isomer, unassigned) [Example 54a] | 1290 | –
0.833 | Cc1ccc2cc1CN1Cc3c(ccc(c3Cl)OCCCCn3nnc4c(C)c(ccc43)C2CC(=O)O)OS1(=O)=O (single isomer, unassigned) [Example 66b, [30-Chloro-4,31-dimethyl-27,27-dioxo-21,26-dioxa-27λ^6-thia-1,14,15,16-tetraazahexacyclo[20.5.3.1^3,70.1^9,130.0^12,160.0^25,29]dotriaconta-3(32),4,6,9(31),10,12,14,22,24,29-decaen-8-yl]acetic acid] | – | 17.9
4.86 | Cc1ccc2cc1CN1Cc3cc(ccc3OS1(=O)=O)OCCCCn1nnc3c(C)c(ccc31)[C@@H]2CC(=O)O [Example 7b, [(8R)-4,31-dimethyl-27,27-dioxo-21,26-dioxa-27λ^6-thia-1,14,15,16-tetraazahexacyclo[20.5.3.1^3,70.1^9,130.0^12,160.0^25,29]dotriaconta-3(32),4,6,9(31),10,12,14,22,24,29-decaen-8-yl]acetic acid] | 290 | –
